Laboratory results as given in US9212152B2, “Process for the preparation of N-hydroxy-1-(1-alkyl-1H-tetrazol-5-yl)-1-phenylmethanimine derivatives” (BAYER INTELLECTUAL PROPERTY GMBH, priority 2012, dated 2015).

Experiment: log P determination
Format: physicochemical
Conditions: pH 2.7

logP: 1.45
Structure (SMILES): Cn1nnnc1C(=NO)c1ccccc1 [Example 1, sodium {[(1-methyl-1H-tetrazol-5-yl)(phenyl)methylene]amino}oxidanide]
